# The supplement of paper PMC13380429
# ± gives the standard deviation of the averaged measurements.
# How the values were obtained:
# Settings in all cases: 72 h
# Caco-2 [1] = assay: cell viability relative to DMSO; higher = less toxic
# Calu-3 [2] = assay: as above
# HepG2 [3] = assay: as above
# U2OS [4] = assay: as above
# Vero E6 [5] = assay: as above
# Caco-2 [6] = assay: relative viability EC50 (midpoint between 100% and the lowest measured viability); higher = less toxic
# Calu-3 [7] = assay: as above
# HepG2 [8] = assay: as above
# U2OS [9] = assay: as above
# Vero E6 [10] = assay: as above
# Caco-2 [11] = assay: drug sensitivity score (DSS) for viability; higher = more toxic; extreme values may be limits of the assay
# Calu-3 [12] = assay: as above
# HepG2 [13] = assay: as above
# U2OS [14] = assay: as above
# Vero E6 [15] = assay: as above
Structure (SMILES),cell viability (Caco-2 [1]; 1 nM),cell viability (Caco-2 [1]; 10 nM),cell viability (Caco-2 [1]; 100 nM),cell viability (Caco-2 [1]; 1000 nM),cell viability (Caco-2 [1]; 10000 nM),cell viability (Calu-3 [2]; 1 nM),cell viability (Calu-3 [2]; 10 nM),cell viability (Calu-3 [2]; 100 nM),cell viability (Calu-3 [2]; 1000 nM),cell viability (Calu-3 [2]; 10000 nM),cell viability (HepG2 [3]; 1 nM),cell viability (HepG2 [3]; 10 nM),cell viability (HepG2 [3]; 100 nM),cell viability (HepG2 [3]; 1000 nM),cell viability (HepG2 [3]; 10000 nM),cell viability (U2OS [4]; 1 nM),cell viability (U2OS [4]; 10 nM),cell viability (U2OS [4]; 100 nM),cell viability (U2OS [4]; 1000 nM),cell viability (U2OS [4]; 10000 nM),cell viability (Vero E6 [5]; 1 nM),cell viability (Vero E6 [5]; 10 nM),cell viability (Vero E6 [5]; 100 nM),cell viability (Vero E6 [5]; 1000 nM),cell viability (Vero E6 [5]; 10000 nM),relative viability EC50 (Caco-2 [6]),relative viability EC50 (Calu-3 [7]),relative viability EC50 (HepG2 [8]),relative viability EC50 (U2OS [9]),relative viability EC50 (Vero E6 [10]),drug sensitivity score (Caco-2 [11]),drug sensitivity score (Calu-3 [12]),drug sensitivity score (HepG2 [13]),drug sensitivity score (U2OS [14]),drug sensitivity score (Vero E6 [15])
CC(C)C[C@H](NC(=O)[C@@H](O)[C@H](N)Cc1ccccc1)C(=O)O [ubenimex],98.2%,108%,95.9%,103%,103%,103%,96%,104%,105%,104%,105%,93.4%,111%,102%,95.4%,97%,105%,103%,99.8%,98.5%,101%,98.8%,102%,98.7%,101%,> 10 µM,> 10 µM,> 10 µM,> 10 µM,> 10 µM,0,0,0,0,0
C[C@H](CCC(=O)O)[C@H]1CC[C@H]2[C@@H]3[C@@H](O)C[C@@H]4C[C@H](O)CC[C@]4(C)[C@H]3CC[C@]12C [ursodiol],106 ± 2.8%,102 ± 3.9%,98.4 ± 0.14%,94.9 ± 5.4%,85.8 ± 15%,97%,96.6%,102%,87.2%,105%,97.7 ± 6.4%,107 ± 4.5%,97.2 ± 8.1%,108 ± 7.4%,106 ± 4.2%,104%,94.3%,96.2%,93.2%,108%,97.3 ± 3.1%,101 ± 5.3%,100 ± 6.9%,104 ± 2.4%,103 ± 14%,> 10 µM,> 10 µM,> 10 µM,> 10 µM,> 10 µM,0.95 ± 1.3,0,0,0,0
NS(=O)(=O)Cc1noc2ccccc12 [zonisamide],84.9%,97.9%,96.1%,96.3%,106%,95.1%,97.9%,100%,115%,88.1%,110%,102%,98.2%,94.5%,102%,94.1%,93.9%,92.4%,98.4%,102%,101%,93.3%,98.5%,93.8%,106%,> 10 µM,> 10 µM,> 10 µM,> 10 µM,> 10 µM,0,0,0,0,0
